# Assay results taken from patent US20090005309A1, “SUBSTITUTED PIPERIDINES” (AUSPEX PHARMACEUTICALS, INC., priority 2007, published 2009).
# Where two headings read alike, the source gives them in different places.
# Legend:
# [1] = molecular target: CYP2C19 (Homo sapiens, UniProt P33261); test: In vitro inhibition of human cytochrome P450 CYP2C19 (fluorometric, 3-cyano-7-ethoxycoumarin substrate)
# Procedure: (§1) In Vitro Inhibition of Human Cytochrome P450 Enzymes
# (§2) Solution A: NADPH-Regenerating System
# To a glass tube on ice were added sequentially: Water (8 mL) in NADP+ (20 mg), glucose-6-phosphate (20 mg), magnesium chloride hexahydrate (13.3 mg) and glucose-6-phosphate dehydrogenase (60 units).
# Solution A was transferred to a 96-well black plate (80 microliter per well), followed by various concentrations of a solution of paroxetine in 20% acetonitrile-water (20 microliter per well). The reaction was initiated by adding 100 microliter of solution B to each well of the 96-well plate. The plate was incubated for 30 minutes at 37° C. in the dark. The reaction was stopped by adding 75 microliter of stop buffer (4:1 acetonitrile-0.5 M Tris base) to each well, and the end point was measured in a fluorometer plate reader at λex=409 nm and λem=460 nm.
# [2] = molecular target: CYP2D6 (Homo sapiens, UniProt P10635); test: In vitro inhibition of human cytochrome P450 CYP2D6 (fluorometric, 3-[2-(N,N diethyl-N-methylamino)ethyl]-7-methoxy-4-methylcoumarin substrate); format: in vitro ADME; conditions: for IC50: 40 minutes at 37° C.; for times the amount of compound needed to inhibit CYP2D6 than non-isotopically enriched zamifenacin: ratio versus non-isotopically enriched zamifenacin (IC50 0.33 μM)
# Sequence of CYP2D6 (P10635 whole entry): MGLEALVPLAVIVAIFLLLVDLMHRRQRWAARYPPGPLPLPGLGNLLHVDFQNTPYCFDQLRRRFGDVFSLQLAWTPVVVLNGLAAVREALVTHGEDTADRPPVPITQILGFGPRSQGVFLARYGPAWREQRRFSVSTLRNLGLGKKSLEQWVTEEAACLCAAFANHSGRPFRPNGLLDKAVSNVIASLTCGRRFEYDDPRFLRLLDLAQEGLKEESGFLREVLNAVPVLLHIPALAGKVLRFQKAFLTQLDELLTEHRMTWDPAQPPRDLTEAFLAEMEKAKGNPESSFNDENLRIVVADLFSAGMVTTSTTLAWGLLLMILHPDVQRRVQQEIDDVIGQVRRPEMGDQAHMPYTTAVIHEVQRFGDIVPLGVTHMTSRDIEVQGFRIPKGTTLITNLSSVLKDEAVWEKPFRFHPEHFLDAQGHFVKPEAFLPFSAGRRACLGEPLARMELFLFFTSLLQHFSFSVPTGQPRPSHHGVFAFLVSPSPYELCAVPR
# Procedure: as §1, §2
# The plate was incubated for 40 minutes at 37° C. in the dark.
# [3] = read-out: IC50 for inhibition of CYP2D6
# Sequence of CYP2C19 (P33261 whole entry): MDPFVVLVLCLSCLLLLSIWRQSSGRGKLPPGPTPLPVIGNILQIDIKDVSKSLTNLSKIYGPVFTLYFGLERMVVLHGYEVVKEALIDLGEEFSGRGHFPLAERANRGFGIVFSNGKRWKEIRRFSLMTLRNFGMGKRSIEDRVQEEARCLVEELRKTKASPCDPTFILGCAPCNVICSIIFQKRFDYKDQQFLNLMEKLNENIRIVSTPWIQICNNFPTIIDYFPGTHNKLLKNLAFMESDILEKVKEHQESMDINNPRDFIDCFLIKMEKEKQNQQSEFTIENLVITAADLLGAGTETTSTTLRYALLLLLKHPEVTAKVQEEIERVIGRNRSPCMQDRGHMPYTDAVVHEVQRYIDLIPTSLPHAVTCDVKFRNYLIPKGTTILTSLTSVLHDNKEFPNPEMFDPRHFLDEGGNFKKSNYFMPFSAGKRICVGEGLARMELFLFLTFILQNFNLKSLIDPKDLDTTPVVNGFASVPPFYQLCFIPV
SMILES,IC50 [1] [nM],"IC50 [2, 3] [nM]",times the amount of compound needed to inhibit CYP2D6 than non-isotopically enriched zamifenacin [2] [times],"IC50 ([2]; positive control, read-out: IC50 for inhibition of CYP2D6 (positive control)) [nM]"
"[2H]C([2H])(c1ccc2c(c1)OCO2)C([2H])([2H])N1CCCC(OC(c2ccccc2)c2ccccc2)C1 (stereo not shown) [Example 2, d4-3-Benzhydryloxy-1-(2-benzo[1,3]dioxol-5-yl-ethyl)-piperidine]",4000,,,
"[2H]C1([2H])Oc2ccc(CCN3CCCC(OC(c4ccccc4)c4ccccc4)C3)cc2O1 (stereo not shown) [Example 3, d2-3-Benzhydryloxy-1-(2-benzo[1,3]dioxol-5-yl-ethyl)-piperidine]",5100,400,1.2,
"[2H]C1([2H])Oc2ccc(C([2H])([2H])C([2H])([2H])N3CCCC(OC(c4ccccc4)c4ccccc4)C3)cc2O1 (stereo not shown) [Example 4, d6-3-Benzhydryloxy-1-(2-benzo[1,3]dioxol-5-yl-ethyl)-piperidine]",5300,420,1.3,
"Cc1nc2c([nH]1)c(=O)n(C)c(=O)n2Cc1ccco1 [Furafylline, reference compound]",,,,14.5
"c1ccc(C(OC2CCCN(CCc3ccc4c(c3)OCO4)C2)c2ccccc2)cc1 (stereo not shown) [zamifenacin, 3-benzhydryloxy-1-(2-benzo[1,3]dioxol-5-yl-ethyl)-piperidine, reference compound]",3600,330,,
